Assay results: US20190015400A1, “Antifungal Compositions” (priority 2017, published 2019)

Tests used:
[1] = aqueous assay medium, from DMSO stock
[2] = test system: C. glabrata ATCC 2001 (strain H); test: MIC and checkerboard assay, azoles + antihistamines; assay type: cell-based, Candida glabrata; conditions: in combination with POS
Experimental: Determination of minimum inhibitory concentration (MIC) values. MIC values were recorded for all antifungals and antihistamines in order to determine the concentration range of compounds to be used in the checkerboard assays.
The MIC assays were done using the broth microdilution method as described in CLSI document M27-A3 with minor modifications. Yeast cultures were started by picking a colony from a PDA plate stored at 4° C. The colonies were grown in YEPD medium overnight at 35° C. with shaking at 200 rpm. In a 96-well plate compounds were diluted lengthwise along the plate in serial 2-fold dilutions in the RPMI 1640 medium. The yeast cultures were diluted in RPMI 1640 medium to an OD600 within the range of 0.12 and 0.15 (˜1×10^6 cells/mL). The fungal cells were further diluted by taking 25 μL of fungal cells and adding them to 10 mL of RPMI 1640 medium before adding 100 μL to plate (200 μL total volume). The plates were incubated at 35° C. for 48 h. Visual inspection of the wells for no growth was used to determine the MIC. All compounds were tested in duplicate (TABLES 6 and 7).
Checkerboard assays were done as previously described to determine the fractional inhibitory concentration index (FICI). 2-fold dilutions of the azole drug were made in RPMI 1640 medium lengthwise along the plate. For the antihistamine, 2-fold serial dilutions were made in sterile tubes with RPMI 1640 medium, then aliquoted into the plate. […] The maximal amount was used in the checkerboard assays if complete inhibition was not observed in the MIC assays. Cultures were started by picking a colony from a plate and growing in YEPD medium overnight at 35° C. with shaking at 200 rpm. Cultures were diluted in RPMI 1640 medium to an OD600 between 0.12 and 0.15 (˜1×10^6 cells/mL). Cells were then further diluted by taking 25 μL of cell suspension and adding to 10 mL of RPMI 1640 medium. After the drugs were added to the plate with 100 μL of medium, 100 μL of fungal cells were added. Plates were incubated at 35° C. for 48 h and visual inspection was used to determine wells with no growth. All experiments were carried out in duplicate. The FICI was calculated based on the formula below. The combinational effect of the 2 tested compounds were considered synergistic (SYN) if FICI≤0.5, additive (ADD) if 0.5<FICI≤4, and antagonistic if FICI>4 (TABLES 6-9).

HaCaT cells = test: Mammalian cytotoxicity (resazurin cell viability), POS and EBA; assay type: cell-based, human; conditions: EBA alone at 25 μg/mL
Experimental: (§1) To examine whether the inhibitory effect of the antifungal and antihistamine combinations is specific to fungal cells, the combinations were tested with 4 mammalian cell lines: A459, BEAS-2B, HEK-293, and HaCaT. […] The assays were done in 96-well plates. A549 and BEAS-2B cells were plated at a density of 3×10^3 cells/mL, HaCaT were plated at 2×10^4 cells/mL, and HEK-293 cells were plated at 1×10^4 cells/mL as determined by using a hemacytometer. […] All assays were done in quadruplicate.

HEK-293 cells = test: as above; assay type: cell-based, human; conditions: EBA alone at 25 μg/mL
Experimental: as §1

A549 cells = test: as above; assay type: cell-based, human; conditions: EBA alone at 25 μg/mL
Experimental: as §1

BEAS-2B cells = test: as above; assay type: cell-based, human; conditions: EBA alone at 25 μg/mL
Experimental: as §1

[3] = test system: C. glabrata ATCC 2001 (strain H); test: Time-kill assay, POS and EBA; assay type: cell-based, Candida glabrata; conditions: POS + EBA combination at 1×MIC
Experimental: (§2) The protocol for time-kill assays followed methods previously described with minor modifications. Yeast cultures were grown overnight in YEPD medium at 35° C. with shaking at 200 rpm. A working stock of fungal cells was made by diluting cultures in 1640 medium to an OD600 of 0.125 (˜1×10^6 CFU/mL). From the working stock, 100 μL of cells was added to 4.9 mL of RPMI 1640 medium in sterile culture tubes, making the starting fungal cell concentration ˜1×10^5 CFU/mL. Drug was then added to the fungal cells. […] Treated fungal cultures were incubated in the culture tubes at 35° C. with 200 rpm shaking for 24 h. Samples were aliquoted from the different treatments at regular time points (0, 3, 6, 9, 12, and 24 h) and plated in duplicate. For each time point, cultures were vortexed, 100 μL of culture was aspirated, and 10-fold serial dilutions were made in sterile ddH2O. From the appropriate dilutions, 100 μL of fungal suspension was spread on PDA plates and incubated at 35° C. for 48 h before colony counts were determined. At 24 h, 50 μL of 1 mM resazurin in phosphate buffered saline (PBS) was added to the treatments and incubated at 35° C. with 200 rpm shaking for 2 h in the dark for visual inspection. […] Experiments were performed in duplicate.

[4] = test system: C. albicans ATCC 10231 (strain B); test: Time-kill assay, POS and EBA; assay type: cell-based, Candida albicans; conditions: POS + EBA combination at 1×MIC
Experimental: as §2

maximal concentration where no precipitation was observed [1] [µg/mL] | Structure (SMILES) | FICI [2] | cell survival (HaCaT cells) [%] | cell survival (HEK-293 cells) [%] | cell survival (A549 cells) [%] | cell survival (BEAS-2B cells) [%] | CFU/mL through 24 h [3] | CFU/mL through 24 h [4]
42.7 | CC(C)(C)c1ccc(C(O)CCCN2CCC(C(O)(c3ccccc3)c3ccccc3)CC2)cc1 (centres unmarked) [TERF, terfenadine] |  |  |  |  |  |  | 
 | CC(C)(C)c1ccc(C(=O)CCCN2CCC(OC(c3ccccc3)c3ccccc3)CC2)cc1 [EBA, ebastine] | 0.05 | ~0 | ~0 | ~0 | ~0 | 10^6 CFU/mL | 10^6 CFU/mL
